Structures are written as SMILES.

The first experiment addresses T1, SIRT1 (Homo sapiens, UniProt Q96EB6).
T1 sequence (Q96EB6 1-747): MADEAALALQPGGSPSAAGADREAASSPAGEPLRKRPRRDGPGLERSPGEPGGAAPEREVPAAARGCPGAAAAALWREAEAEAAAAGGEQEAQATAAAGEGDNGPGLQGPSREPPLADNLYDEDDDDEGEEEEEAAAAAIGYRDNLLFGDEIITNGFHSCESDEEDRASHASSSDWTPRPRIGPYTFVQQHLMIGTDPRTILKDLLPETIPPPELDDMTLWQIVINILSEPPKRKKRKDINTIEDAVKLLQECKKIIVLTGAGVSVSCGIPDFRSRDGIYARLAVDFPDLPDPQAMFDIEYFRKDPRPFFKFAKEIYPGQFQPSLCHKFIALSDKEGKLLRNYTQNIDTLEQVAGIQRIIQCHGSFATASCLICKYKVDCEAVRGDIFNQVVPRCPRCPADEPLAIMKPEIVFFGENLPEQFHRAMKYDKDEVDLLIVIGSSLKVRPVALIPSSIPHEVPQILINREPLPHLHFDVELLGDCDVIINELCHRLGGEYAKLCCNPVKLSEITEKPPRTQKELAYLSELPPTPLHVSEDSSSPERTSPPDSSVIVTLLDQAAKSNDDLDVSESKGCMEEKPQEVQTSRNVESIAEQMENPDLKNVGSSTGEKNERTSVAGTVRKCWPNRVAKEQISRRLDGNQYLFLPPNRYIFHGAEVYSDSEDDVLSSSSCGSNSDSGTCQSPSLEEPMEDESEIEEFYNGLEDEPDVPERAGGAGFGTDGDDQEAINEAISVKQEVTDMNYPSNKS
The experiment can be described thus: Trp mass spectrometry assay of SIRT1 activity. It counts as biochemical. To be noted: Trp assay; percent maximum fold activation; read-out: Trp % Fold Act. The procedure, abridged: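 Activation readout: EC1.5 (concentration raising activity 50% over control) and percent maximum activation, from mass-spec quantitation of OAADPR or deacetylated Trp peptide. Reaction: 0.5 μM acetylated Trp peptide, 120 μM βNAD+, 10 nM bacterially expressed N-His SIRT1, pH 7.5 HEPES buffer with […], 25 min at 25° C.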
Take `CC1CCN(c2ccc3ncc(C(=O)Nc4cncc(F)c4)n3n2)C1` (stereo not shown) [Compound 979]: the Emax is not below 350%. On to `Cc1nc2ccc(N3CCC(F)(F)C3)nn2c1C(=O)Nc1cccnc1` [Compound 980, 6-(3,3-difluoropyrrolidin-1-yl)-2-methyl-N-(pyridin-3-yl)imidazo[1,2-b]pyridazine-3-carboxamide], for which the Emax is not below 350%. Still for that read-out and setting: in the case of `O=C(Nc1ccccn1)c1cnc2ccc(N3CC[C@H](O)C3)nn12` [Compound 981] it was less than 350%.

Regarding `O=C(Nc1cccnc1)c1cnc2ccc(N3CC[C@H](O)C3)nn12` [Compound 982], the Emax was less than 350%. Still for that read-out and setting: under `O=C(Nc1ccc(F)cn1)c1cnc2ccc(N3CC[C@H](O)C3)nn12` [Compound 983] stands less than 350%; under `O=C(Nc1cccnn1)c1cnc2ccc(N3CC[C@H](O)C3)nn12` [Compound 984], less than 350%; under `O=C(Nc1cncc(F)c1)c1cnc2ccc(N3CC[C@H](O)C3)nn12` [Compound 985], less than 350%.

For the compound `O=C(Nc1ccccn1)c1cnc2ccc(N3CCC[C@H](F)C3)nn12` [Compound 986], the Emax is not below 350%. Regarding `O=C(Nc1cccnc1)c1cnc2ccc(N3CCC[C@H](F)C3)nn12` [Compound 987], the Emax is not below 350%. Turning to `O=C(Nc1ccc(F)cn1)c1cnc2ccc(N3CCC[C@H](F)C3)nn12` [Compound 988], the Emax was not below 350%. Regarding `O=C(Nc1cccnn1)c1cnc2ccc(N3CCC[C@H](F)C3)nn12` [Compound 989], the Emax was not below 350%. With `Cc1nc2ccc(N3CCC(F)(F)C3)nn2c1C(=O)Nc1cncc(F)c1` [Compound 991], the Emax is less than 350%. Same read-out and setting: under `CC1CCN(c2ccc3ncc(C(=O)Nc4ccncn4)n3n2)C1` (stereo not shown) [Compound 992] stands less than 350%; under `O=C(Nc1ccncn1)c1cnc2ccc(N3CCC[C@H](F)C3)nn12` [Compound 993], not below 350%. Same read-out and setting: in the case of `Cc1nc2ccc(N3CCCC(F)(F)C3)nn2c1C(=O)Nc1cccnn1` [Compound 994] it was not below 350%; in that of `C[C@@H]1CN(c2ccc3ncc(C(=O)Nc4cccnc4)n3n2)C[C@H](C)O1` [Compound 995], not below 350%.

As to `C[C@@H]1CN(c2ccc3ncc(C(=O)Nc4cccnn4)n3n2)C[C@H](C)O1` [Compound 996], the Emax is not below 350%. Still for that read-out and setting: under `C[C@@H]1CN(c2ccc3ncc(C(=O)Nc4cncc(F)c4)n3n2)C[C@H](C)O1` [Compound 997] stands not below 350%; under `Cc1nc2ccc(N3CCC(C(F)(F)F)C3)nn2c1C(=O)Nc1cccnn1` (stereo not shown) [Compound 998], not below 350%. On the same count and under the same terms, under `O=C(Nc1ccccn1)c1cnn2ccc(N3CCCC3C(F)(F)F)nc12` (stereo not shown) [Compound 999] stands not below 350%.

Still in this experiment, the particulars now being: percent maximum fold activation of SIRT1; Trp peptide substrate; read-out: Trp % Fold Act.
Regarding `O=C(Nc1cccnc1)c1cnn2ccc(N3CCCC3C(F)(F)F)nc12` (stereo not shown) [Compound 1000], the Emax is not below 350%. As for `O=C(Nc1cncc(F)c1)c1cnn2ccc(N3CCCC3C(F)(F)F)nc12` (stereo not shown) [Compound 1001], the Emax was not below 350%. The same measure, in the same setting: under `C[C@@H]1CN(c2ccc3ncc(C(=O)Nc4cccnc4)n3n2)CCO1` [Compound 1002] stands not below 350%.

Take `C[C@@H]1CN(c2ccc3ncc(C(=O)Nc4cccnn4)n3n2)CCO1` [Compound 1003]: the Emax is not below 350%. `C[C@@H]1CN(c2ccc3ncc(C(=O)Nc4cncc(F)c4)n3n2)CCO1` [Compound 1004]: the Emax is not below 350%. As for `Cc1nc2ccc(N3CCC(F)(F)C3)nn2c1C(=O)Nc1cccnn1` [Compound 1005], the Emax was not below 350%. For the compound `Cc1nc2ccc(N3CCCC3C(F)(F)F)nn2c1C(=O)Nc1cccnn1` (stereo not shown) [Compound 1006], the Emax was not below 350%.

For the compound `O=C(Nc1cccnc1)c1cnn2ccc(N3CCCC(C(F)(F)F)C3)nc12` (stereo not shown) [Compound 1007], the Emax is not below 350%. Turning to `O=C(Nc1ccccn1)c1cnn2ccc(N3CCCC(C(F)(F)F)C3)nc12` (stereo not shown) [Compound 1008], the Emax was not below 350%. For `O=C(Nc1cncc(F)c1)c1cnn2ccc(N3CCCC(C(F)(F)F)C3)nc12` (stereo not shown) [Compound 1009], the Emax was not below 350%. For the compound `O=C(Nc1cncc(F)c1)c1cnn2ccc(N3CCCCC3C(F)(F)F)nc12` (stereo not shown) [Compound 1010], the Emax was not below 350%. Turning to `O=C(Nc1ccccn1)c1cnn2ccc(N3CCC(C(F)(F)F)C3)nc12` (stereo not shown) [Compound 1011], the Emax is not below 350%. `O=C(Nc1cccnc1)c1cnn2ccc(N3CCC(C(F)(F)F)C3)nc12` (stereo not shown) [Compound 1012]: the Emax is not below 350%. The same measure, in the same setting: in the case of `O=C(Nc1cncc(F)c1)c1cnn2ccc(N3CCC(C(F)(F)F)C3)nc12` (stereo not shown) [Compound 1013] it was not below 350%; in that of `O=C(Nc1cccnn1)c1cnn2ccc(N3CCC(C(F)(F)F)C3)nc12` (stereo not shown) [Compound 1014], not below 350%. In the case of `Cc1nc2ccc(N3CCC[C@H]3C(F)(F)F)nn2c1C(=O)Nc1ccccn1` [Compound 1015], the Emax was not below 350%. `Cc1nc2ccc(N3CCC[C@H]3C(F)(F)F)nn2c1C(=O)Nc1cccnc1` [Compound 1016]: the Emax was not below 350%. Turning to `Cc1nc2ccc(N3CCC[C@H]3C(F)(F)F)nn2c1C(=O)Nc1cncc(F)c1` [Compound 1017], the Emax was not below 350%. As to `Cc1nc2ccc(N3CCC[C@H]3C(F)(F)F)nn2c1C(=O)Nc1cccnn1` [Compound 1018], the Emax was not below 350%. In the case of `O=C(Nc1cccnc1)c1cnc2ccc(N3CCC[C@@H]3C(F)(F)F)nn12` [Compound 1019], the Emax is not below 350%. The same measure, in the same setting: in the case of `Cn1cc2ccc(NC(=O)c3cnc4ccc(N5CCC[C@@H]5C(F)(F)F)nn34)cc2n1` [Compound 1020] it was not below 350%. Regarding `O=C(Nc1cccnn1)c1cnn2ccc(N3CCCCC3C(F)(F)F)nc12` (stereo not shown) [Compound 1021], the Emax was not below 350%. As to `O=C(Nc1cccnn1)c1cnn2ccc(N3CCCC3C(F)(F)F)nc12` (stereo not shown) [Compound 1022], the Emax is not below 350%. `O=C(Nc1cccnn1)c1cnn2ccc(N3CCCC(C(F)(F)F)C3)nc12` (stereo not shown) [Compound 1023]: the Emax is not below 350%. Turning to `COc1nccc(NC(=O)c2cnn3ccc(N4CCC[C@H]4C(F)(F)F)nc23)n1` [Compound 1024], the Emax was not below 350%. The same measure, in the same setting: under `O=C(Nc1ccncn1)c1cnn2ccc(N3CCC[C@H]3C(F)(F)F)nc12` [Compound 1025] stands not below 350%; under `O=C(Nc1cccnc1)c1cnn2ccc(N3CCC[C@H]3C(F)(F)F)nc12` [Compound 1026], not below 350%; under `Cc1cncc(NC(=O)c2cnn3ccc(N4CCC[C@H]4C(F)(F)F)nc23)c1` [Compound 1027], not below 350%. Still for that read-out and setting: in the case of `O=C(Nc1cncc(F)c1)c1cnn2ccc(N3CCC[C@H]3C(F)(F)F)nc12` [Compound 1028] it was not below 350%; in that of `O=C(Nc1ccccn1)c1cnn2ccc(N3CCC[C@H]3C(F)(F)F)nc12` [Compound 1029], not below 350%; in that of `O=C(Nc1cccnn1)c1cnn2ccc(N3CCC[C@H]3C(F)(F)F)nc12` [Compound 1030], not below 350%.

As to `O=C(Nc1cnccn1)c1cnn2ccc(N3CCC[C@H]3C(F)(F)F)nc12` [Compound 1031], the Emax is not below 350%. For `Cc1nc(NC(=O)c2cnn3ccc(N4CCC[C@H]4C(F)(F)F)nc23)sc1C` [Compound 1032, (S)-N-(4,5-dimethylthiazol-2-yl)-5-(2-(trifluoromethyl)pyrrolidin-1-yl)pyrazolo[1,5-a]pyrimidine-3-carboxamide], the Emax is not below 350%. Consider `Cc1nc(NC(=O)c2c(C)nn3ccc(N4CCC[C@H]4C(F)(F)F)nc23)sc1C` [Compound 1033], for which the Emax is not below 350%.

Consider `Cc1nn2ccc(N3CCC[C@H]3C(F)(F)F)nc2c1C(=O)Nc1cccnn1` [Compound 1034], for which the Emax was not below 350%. Take `Cc1nn2ccc(N3CCC[C@H]3C(F)(F)F)nc2c1C(=O)Nc1ccccn1` [Compound 1035]: the Emax was not below 350%. Still for that read-out and setting: in the case of `Cc1cncc(NC(=O)c2c(C)nn3ccc(N4CCC[C@H]4C(F)(F)F)nc23)c1` [Compound 1036] it was not below 350%. For the compound `CC1CCCN1c1ccn2ncc(C(=O)Nc3ccccn3)c2n1` (stereo not shown) [Compound 1037], the Emax was not below 350%. Same read-out and setting: under `Cc1nc(NC(=O)c2cnn3ccc(N4CCCC4C)nc23)sc1C` (stereo not shown) [Compound 1038] stands less than 350%; under `CC1CCCN1c1ccn2ncc(C(=O)Nc3cncc(F)c3)c2n1` (stereo not shown) [Compound 1039], not below 350%; under `CC1CCCN1c1ccn2ncc(C(=O)Nc3cccnn3)c2n1` (stereo not shown) [Compound 1040], not below 350%. Still for that read-out and setting: in the case of `CC1CCCN1c1ccn2ncc(C(=O)Nc3cnccn3)c2n1` (stereo not shown) [Compound 1041] it was less than 350%. On the same count and under the same terms, under `CC1CCCN1c1ccn2ncc(C(=O)Nc3ccncn3)c2n1` (stereo not shown) [Compound 1042] stands less than 350%; under `COc1nccc(NC(=O)c2cnn3ccc(N4CCCC4C)nc23)n1` (stereo not shown) [Compound 1043], less than 350%.

The values above are taken from patent US9957271B2, “Substituted bicyclic aza-heterocycles and analogues as sirtuin modulators” (GlaxoSmithKline, LLC, priority 2012, dated 2018).
